These results are taken from patent publication US20110257256A1, “CANNABINOIDS FOR USE IN TREATING OR […] […] […]” (priority 2008, published 2011).

Series [1] deals with Myelomonocytic THP-1 cells. Put plainly: Cell viability of THP-1 cells by MTT-test and trypan blue exclusion. The following applies: 0.1-10 μg/ml, unstimulated or LPS (1 μg/ml) stimulated THP-1 cells, 48 h. Format: cell-based. How it is done:
Myelomonocytic THP-1 cells were obtained from European Collection of Cell Cultures (ECACC). […] Afterwards, cells were stimulated or not with 1 μg/ml LPS for 48 h.
(§1) After incubation of PBMC with mitogens Con A or PHA (each 10 μg/ml) or treatment of THP-1 cells with LPS (1 μg/ml ), with or without cannabinoids for 48 h, cell viability was measured by MTT-test (3-[4,5-[…]]-2,5 diphenyl tetrazolium bromide) and by trypan blue exclusion method in three experiments performed in triplicates. No toxicity could be observed with solvent (0.1% EtOH; data not shown). IC50 were calculated by the CalcuSyn software from Biosoft, Cambridge, UK, using the original concept of Chou and Talalay (Chou and Talalay, 1984, Adv. Enzyme Regul. 22, 27-55).
(Tetrazolium dyes change colour on reduction, which living cells bring about.)

The subject of series [2] is IDO mRNA. As to the kind of experiment: IDO mRNA expression in PHA stimulated PBMC (real-time RT-PCR). The class given is cell-based, human. The following applies: 5 μg/ml (highest concentration tested), PHA 5 μg/ml, 6 h. How it is done:
(§2) For quantification of IDO and IFN-γ gene expression, RNA was extracted from PBMC using Trizol reagent (Invitrogen, Vienna, Austria) and reverse-transcribed using Superscript II reverse transcriptase (Invitrogen). Thirty cyles of PCR were performed using Sure Start Taq polymerase (Stratagene, La Jolla, Calif.). Levels of mRNA were quantified by real-time PCR with the ABI/PRISM 7700 sequence detection system (PE Applied Biosystems, Foster City, Calif.). 18sRNA was used as an invariant endogenous control. Specific primers and an internal fluorescent TaqMan probe were designed as follows: human 18sRNA primers, 5′-[…]-3′ (SEQ ID NO:1) and 5′-[…]-3′ (SEQ ID NO:2); 18sRNA probe, 5′-FAM-[…]-TAMRA-3′ (SEQ ID NO:3); human IDO primers, 5′-[…]-3′ (SEQ ID NO:4) and 5′-[…]-3′ (SEQ ID NO:5); IDO probe, 5′-FAM-[…]-TAMRA-3′ (SEQ ID NO:6); human IFN-γ primers, 5′[…]-3′ (SEQ ID NO:7), 5′-[…]-3′ (SEQ ID NO:8); IFN-γ probe, 5′-FAM-[…]-TAMRA-3′ (SEQ ID NO:9). Relative mRNA expression was calculated by dividing the relative quantity of each PCR product by the relative quantity of 18sRNA in each sample.

Series [3] relates to human peripheral blood mononuclear cells (PBMC). As to the kind of experiment: Cell viability/proliferation of PBMC by MTT-test and trypan blue exclusion. Format: cell-based. The following applies: 48 h, read-out: IC50 number of viable cells. Here is the method:
PBMC were isolated from whole blood obtained from healthy donors of whom written informed consent was obtained that their donated blood might be used for scientific purposes in case when it was not selected for transfusion. Separation of blood cells was performed using density centrifugation (Lymphoprep, Nycomed Pharma AS, Oslo, Norway). After isolation, PBMC were washed three times in phosphate buffered saline containing 0.2% 0.5 mM EDTA. Cells were maintained in RPMI 1640 supplemented with 10% heat-inactivated fetal calf serum (Biochrom, Berlin, Germany), 2 mM glutamine (Serva, Heidelberg, Germany) and 0.05 mg/ml gentamicin (Bio-Whittaker, Walkersville, Md.) in a humidified atmosphere containing 5% CO2 for 48 h. This procedure was observed earlier to yield best reproducible results when applied for testing of anti-inflammatory effects of compounds or drugs (Winkler et al., 2007, Int. Arch. Allergy Immunol. 142, 127-132). For each of the four experiments run in duplicates, PBMC were freshly prepared.
Consequently, the cells were stimulated or not with 10 μg/ml PHA or Con A for 48 h.
as §1

The test system of series [4] is indoleamine 2,3-dioxygenase (IDO). Put plainly: IDO activity (kyn/trp by HPLC) in PBMC supernatants. The following applies: for IC50: Homo sapiens, PBMC; for effect of low doses on activity of the IDO enzyme: low doses 0.01-0.1 μg/ml, mitogen-stimulated PBMC. Format: cell-based, human.
Series [5] has the same test system. As to the kind of experiment: IDO activity (kyn/trp by HPLC) in THP-1 cells. Format: cell-based. The following applies: for IC50: Homo sapiens, LPS (1 μg/ml) stimulated THP-1 cells, 48 h, read-out: IC50 decrease of kyn/trp (LPS-induced tryptophan degradation); for effect on tryptophan metabolism (kyn/trp): unstimulated THP-1 cells, CBD effect at the highest concentration tested.

Series [6] deals with neopterin formation. Put plainly: Neopterin formation in PBMC supernatants (ELISA). Format: cell-based. The following applies: Homo sapiens.
Series [7] concerns IFN-γ mRNA. As to the kind of experiment: IFN-γ mRNA expression in PHA stimulated PBMC (real-time RT-PCR). The class given is cell-based, human. The following applies: 5 μg/ml (highest concentration tested), PHA 5 μg/ml, 6 h. Here is the method:
as §2
In general terms: Real-time PCR tracks product formation cycle by cycle.

For series [8], the target named is CB2 receptors (Homo sapiens, UniProt P34972). The following applies: reported; cited from earlier work.
Chain of CB2 receptors (P34972 whole entry): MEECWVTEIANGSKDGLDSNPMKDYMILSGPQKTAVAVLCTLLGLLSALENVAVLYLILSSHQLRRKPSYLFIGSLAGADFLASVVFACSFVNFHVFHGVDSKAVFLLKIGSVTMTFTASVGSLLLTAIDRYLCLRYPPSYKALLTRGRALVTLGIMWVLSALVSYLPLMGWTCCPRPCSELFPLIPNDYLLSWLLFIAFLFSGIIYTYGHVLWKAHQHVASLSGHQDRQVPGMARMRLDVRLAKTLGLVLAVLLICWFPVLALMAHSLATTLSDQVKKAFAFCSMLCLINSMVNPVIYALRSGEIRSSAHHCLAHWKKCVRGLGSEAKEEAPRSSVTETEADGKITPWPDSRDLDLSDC
The subject of series [9] is CB1/CB2. The following applies: reported; cited from earlier work.
The mark [10] stands for this setting: Con A-stimulated PBMC (10 μg/ml).
[11] abbreviates: unstimulated PBMC, 0.01-20 μg/ml.
Where [12] appears, read: 48 h, Con A-stimulated PBMC (10 μg/ml), 48 h, read-out: IC50 mitogen-induced IDO activity (kyn/trp).
Where [13] appears, read: 48 h, PHA-stimulated PBMC (10 μg/ml), 48 h, read-out: IC50 mitogen-induced IDO activity (kyn/trp).
Setting [14] is: unstimulated PBMC, 0.01-10 μg/ml, read-out: IC50 decrease of kyn/trp.
Where [15] appears, read: 48 h, Con A-stimulated PBMC (10 μg/ml), 48 h, read-out: IC50 mitogen-induced neopterin production.
[16] abbreviates: 48 h, PHA-stimulated PBMC (10 μg/ml), 48 h, read-out: IC50 mitogen-induced neopterin production.
[17] abbreviates: unstimulated PBMC, read-out: IC50 release of neopterin.

SMILES strings stand for the structures. In brackets after ≈: the same amount, converted by molar mass. Read-outs that look alike come from different tables or passages of the source.

`CCCCCc1cc(O)c2c(c1)OC(C)(C)[C@@H]1CCC(C)=C[C@@H]21` [THC, (6aR,10aR)-6,6,9-Trimethyl-3-pentyl-6a, 7,8,10a-tetrahydro-6H-benzo[c]chromen-1-ol]: in [1], the “influence on viability of THP-1 cells” value is listed as “did not show any influence”. Besides, the “inhibition of mitogen-stimulated expression of IDO mRNA” value in series [2] was “almost completely, inhibit”. Further, the IC50 in series [3] (setting [10]) came out at 17.5 µg/mL (≈ 55.6 µM); in series [3] (PHA-stimulated PBMC (10 μg/ml)) it was 15.2 µg/mL (≈ 48.3 µM); in series [3] (setting [11]), 14.5 µg/mL (≈ 46.1 µM); in series [4] (setting [12]) it was 4.2 µg/mL (≈ 13.4 µM); in [4] (setting [13]) it was 5.5 µg/mL (≈ 17.5 µM); in series [4] (setting [14]), 2.6 µg/mL (≈ 8.27 µM). The IC50 in series [5] was 0.6 µg/mL (≈ 1.91 µM); in series [6] (setting [15]) it was 6.7 µg/mL (≈ 21.3 µM); in series [6] (setting [16]) it was 5.3 µg/mL (≈ 16.9 µM); in series [6] (setting [17]), 16.7 µg/mL (≈ 53.1 µM). Also, the “effect of low doses on activity of the IDO enzyme” value in series [4] is recorded as “modest but significant increase”. Besides, the “effect on tryptophan metabolism (kyn/trp)” value in series [5] was “did not influence tryptophan metabolism”. In addition, in series [7], the “inhibition of mitogen-stimulated expression of IFN-γ mRNA” value is “almost completely, inhibit”.
For `C=C(C)[C@@H]1CCC(C)=C[C@H]1c1c(O)cc(CCCCC)cc1O` [CBD, 2-[(1R,6R)-3-methyl-6-prop-1-en-2-yl-1-cyclohex-2-enyl]-5-pentylbenzene-1,3-diol], the affinity entry in [8] is listed as “micromolar range”. The “influence on viability of THP-1 cells” value in series [1] is “did not show any influence”. In [2], the “inhibition of mitogen-stimulated expression of IDO mRNA” value is “almost completely, inhibit”. Besides, the IC50 in [3] (setting [10]) stood at 8.6 µg/mL (≈ 27.3 µM); in [3] (PHA-stimulated PBMC (10 μg/ml)), 8.5 µg/mL (≈ 27 µM); in series [3] (setting [11]) it was 7.3 µg/mL (≈ 23.2 µM); in series [4] (setting [12]), 2.8 µg/mL (≈ 8.9 µM); in series [4] (setting [13]) it was 1.4 µg/mL (≈ 4.45 µM); in series [4] (setting [14]), 1.2 µg/mL (≈ 3.82 µM). Besides, the IC50 in series [5] is 0.3 µg/mL (≈ 0.954 µM); in series [6] (setting [15]), 3.1 µg/mL (≈ 9.86 µM); in series [6] (setting [16]), 3.7 µg/mL (≈ 11.8 µM); in series [6] (setting [17]), 8.2 µg/mL (≈ 26.1 µM). Further, the “effect of low doses on activity of the IDO enzyme” value in [4] is on record as “modest but significant increase”. The “effect on tryptophan metabolism (kyn/trp)” value in [5] was “faint suppression of tryptophan degradation”. The “inhibition of mitogen-stimulated expression of IFN-γ mRNA” value in [7] was “almost completely, inhibit”. The “KB antagonism of CB1/CB2 agonists” value in [9] is “low nanomolar range”.
